Measurements reported in ChEMBL document CHEMBL1154822, “Synthesis and antiproliferative activity of 7-azaindirubin-3'-oxime, a 7-aza isostere of the natural indirubin pharmacophore” (J Nat Prod, 2009).

Legend:
SNB-75 [1] = test: Cytotoxicity against human SNB75 cells after 1 to 11 days by MTT assay; type: functional
SK-MEL-28 [2] = test: Cytotoxicity against human SK-MEL-28 cells assessed as cell growth at 0.1 uM after 1 to 11 days by MTT assay; type: functional; details: read-out: Activity
[3] = Cytotoxicity against human Hs 578T cells assessed as cell growth at 1 uM after 1 to 11 days by MTT assay; type: functional; details: read-out: Activity
LOX IMVI = test: Cytotoxicity against human LOXIMVI cells assessed as cell growth at 1 uM after 1 to 11 days by MTT assay; type: functional; details: read-out: Activity
SK-MEL-5 [4] = test: Cytotoxicity against human SK-MEL-5 cells assessed as cell growth at 100 uM after 1 to 11 days by MTT assay; type: functional; details: read-out: Activity
SW-620 = test: Cytotoxicity against human SW620 cells assessed as cell growth at 1 mM after 1 to 11 days by MTT assay; type: functional; details: read-out: Activity
T47D [5] = test: Cytotoxicity against human T47D cells assessed as cell growth at 1 uM after 1 to 11 days by MTT assay; type: functional; details: read-out: Activity
UO-31 [6] = test: Cytotoxicity against human UO31 cells assessed as cell growth at 1 uM after 1 to 11 days by MTT assay; type: functional; details: read-out: Activity
SK-OV-3 = test: Cytotoxicity against human SKOV3 cells assessed as cell growth at 100 uM after 1 to 11 days by MTT assay; type: functional; details: read-out: Activity
OVCAR-3 = test: Cytotoxicity against human OVCAR-3 cells assessed as cell growth at 1 mM after 1 to 11 days by MTT assay; type: functional; details: read-out: Activity
SNB-75 [7] = test: Cytotoxicity against human SNB75 cells assessed as cell growth at 1 uM after 1 to 11 days by MTT assay; type: functional; details: read-out: Activity
SK-MEL-5 [8] = test: Cytotoxicity against human SK-MEL-5 cells assessed as cell growth at 1 mM after 1 to 11 days by MTT assay; type: functional; details: read-out: Activity
MDA-MB-468 = test: Cytotoxicity against human MDA-MB-468 cells assessed as cell growth at 10 uM after 1 to 11 days by MTT assay; type: functional; details: read-out: Activity
SF-268 [9] = test: Cytotoxicity against human SF268 cells assessed as cell growth at 0.1 uM after 1 to 11 days by MTT assay; type: functional; details: read-out: Activity
A549 = test: Cytotoxicity against human A549 cells assessed as cell growth at 1 uM after 1 to 11 days by MTT assay; type: functional; details: read-out: Activity
SF-268 [10] = test: Cytotoxicity against human SF268 cells assessed as cell growth at 100 uM after 1 to 11 days by MTT assay; type: functional; details: read-out: Activity
RPMI-8226 [11] = test: Cytotoxicity against human RPMI8226 cells assessed as cell growth at 10 uM after 1 to 11 days by MTT assay; type: functional; details: read-out: Activity
SK-MEL-28 [12] = test: Cytotoxicity against human SK-MEL-28 cells after 1 to 11 days by MTT assay; type: functional
T47D [13] = test: Cytotoxicity against human T47D cells assessed as cell growth at 100 uM after 1 to 11 days by MTT assay; type: functional; details: read-out: Activity
SN12C = test: Cytotoxicity against human SN12C cells assessed as cell growth at 10 uM after 1 to 11 days by MTT assay; type: functional; details: read-out: Activity
BT-549 [14] = test: Cytotoxicity against human BT549 cells assessed as cell growth at 1 uM after 1 to 11 days by MTT assay; type: functional; details: read-out: Activity
OVCAR-8 = test: Cytotoxicity against human OVCAR8 cells assessed as cell growth at 1 uM after 1 to 11 days by MTT assay; type: functional; details: read-out: Activity
DU-145 = test: Cytotoxicity against human DU145 cells assessed as cell growth at 10 uM after 1 to 11 days by MTT assay; type: functional; details: read-out: Activity
HCT-15 [15] = test: Cytotoxicity against human HCT15 cells assessed as cell growth at 1 mM after 1 to 11 days by MTT assay; type: functional; details: read-out: Activity
KM12 = test: Cytotoxicity against human KM12 cells after 1 to 11 days by MTT assay; type: functional
SF-268 [16] = test: Cytotoxicity against human SF268 cells after 1 to 11 days by MTT assay; type: functional
IGROV-1 = test: Cytotoxicity against human IGROV1 cells after 1 to 11 days by MTT assay; type: functional
NCI-H322M [17] = test: Cytotoxicity against human NCI-H322M cells assessed as cell growth at 0.1 uM after 1 to 11 days by MTT assay; type: functional; details: read-out: Activity
NCI-H322M [18] = test: Cytotoxicity against human NCI-H322M cells assessed as cell growth at 100 uM after 1 to 11 days by MTT assay; type: functional; details: read-out: Activity
RPMI-8226 [19] = test: Cytotoxicity against human RPMI8226 cells assessed as cell growth at 100 uM after 1 to 11 days by MTT assay; type: functional; details: read-out: Activity
HOP-62 = test: Cytotoxicity against human HOP62 cells assessed as cell growth at 0.1 uM after 1 to 11 days by MTT assay; type: functional; details: read-out: Activity
NCI-H23 = test: Cytotoxicity against human NCI-H23 cells assessed as cell growth at 10 uM after 1 to 11 days by MTT assay; type: functional; details: read-out: Activity
[20] = target: Glycogen synthase kinase-3 beta (Homo sapiens) (UniProt P49841); test: Inhibition of human GSK3-beta at 3 uM after 40 mins by scintillation counting
HCT-116 = test: Cytotoxicity against human HCT116 cells assessed as cell growth at 0.1 uM after 1 to 11 days by MTT assay; type: functional; details: read-out: Activity
PC-3 = test: Cytotoxicity against human PC3 cells assessed as cell growth at 0.1 uM after 1 to 11 days by MTT assay; type: functional; details: read-out: Activity
SNB-19 = test: Cytotoxicity against human SNB19 cells assessed as cell growth at 0.1 uM after 1 to 11 days by MTT assay; type: functional; details: read-out: Activity
SK-MEL-28 [21] = test: Cytotoxicity against human SK-MEL-28 cells assessed as cell growth at 10 uM after 1 to 11 days by MTT assay; type: functional; details: read-out: Activity
HCT-15 [22] = test: Cytotoxicity against human HCT15 cells assessed as cell growth at 0.1 uM after 1 to 11 days by MTT assay; type: functional; details: read-out: Activity
HCT-15 [23] = test: Cytotoxicity against human HCT15 cells assessed as cell growth at 10 uM after 1 to 11 days by MTT assay; type: functional; details: read-out: Activity
A498 = test: Cytotoxicity against human A498 cells assessed as cell growth at 1 mM after 1 to 11 days by MTT assay; type: functional; details: read-out: Activity
UO-31 [24] = test: Cytotoxicity against human UO31 cells assessed as cell growth at 0.1 uM after 1 to 11 days by MTT assay; type: functional; details: read-out: Activity
NCI-H522 = test: Cytotoxicity against human NCI-H522 cells assessed as cell growth at 10 uM after 1 to 11 days by MTT assay; type: functional; details: read-out: Activity
BT-549 [25] = test: Cytotoxicity against human BT549 cells assessed as cell growth at 1 mM after 1 to 11 days by MTT assay; type: functional; details: read-out: Activity
MDA-MB-231 = test: Cytotoxicity against human MDA-MB-231 cells assessed as cell growth at 1 mM after 1 to 11 days by MTT assay; type: functional; details: read-out: Activity
[26] = read-out: LC50 (the source's name)

Sequence of Glycogen synthase kinase-3 beta (Homo sapiens) (P49841 whole entry, looked up): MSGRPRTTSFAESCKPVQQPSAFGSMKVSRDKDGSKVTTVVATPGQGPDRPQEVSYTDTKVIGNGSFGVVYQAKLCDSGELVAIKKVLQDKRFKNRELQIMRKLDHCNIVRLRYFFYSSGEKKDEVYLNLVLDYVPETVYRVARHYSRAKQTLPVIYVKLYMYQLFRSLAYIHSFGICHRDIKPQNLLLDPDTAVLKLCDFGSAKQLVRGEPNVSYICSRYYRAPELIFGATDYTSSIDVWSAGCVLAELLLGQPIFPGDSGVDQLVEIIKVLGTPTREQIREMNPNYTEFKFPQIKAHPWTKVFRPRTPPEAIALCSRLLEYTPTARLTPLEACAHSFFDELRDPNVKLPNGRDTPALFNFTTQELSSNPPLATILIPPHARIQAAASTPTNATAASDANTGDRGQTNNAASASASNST

## O=C1Nc2ncccc2/C1=C1/Nc2ccccc2/C1=N\O
SNB-75 [1]
  GI50: 3.13 µM
  TGI: > 100 µM
SNB-75 [1]; [26]
  CC50: > 100 µM
SK-MEL-28 [2]
  growth at 0.1 µM: 88%
[3]
  growth at 1 µM: 98%
LOX IMVI
  growth at 1 µM: 97%
SK-MEL-5 [4]
  growth at 100 µM: 49%
SW-620
  growth at 1000 µM: 39%
T47D [5]
  growth at 1 µM: 86%
UO-31 [6]
  growth at 1 µM: 80%
SK-OV-3
  growth at 100 µM: -6%
OVCAR-3
  growth at 1000 µM: 51%
SNB-75 [7]
  growth at 1 µM: 90%
SK-MEL-5 [8]
  growth at 1000 µM: 30%
MDA-MB-468
  growth at 10 µM: 80%
SF-268 [9]
  growth at 0.1 µM: 100%
A549
  growth at 1 µM: 95%
SF-268 [10]
  growth at 100 µM: 54%
RPMI-8226 [11]
  growth at 10 µM: 68%
SK-MEL-28 [12]
  GI50: 32.8 µM
  TGI: > 100 µM
SK-MEL-28 [12]; [26]
  CC50: > 100 µM
T47D [13]
  growth at 100 µM: 16%
SN12C
  growth at 10 µM: 81%
BT-549 [14]
  growth at 1 µM: 70%
OVCAR-8
  growth at 1 µM: 85%
DU-145
  growth at 10 µM: 84%
HCT-15 [15]
  growth at 1000 µM: 24%
KM12
  GI50: 0.77 µM
  TGI: > 100 µM
KM12; [26]
  CC50: > 100 µM
SF-268 [16]
  GI50: > 100 µM
  TGI: > 100 µM
SF-268 [16]; [26]
  CC50: > 100 µM
IGROV-1
  GI50: 1.64 µM
  TGI: > 100 µM
IGROV-1; [26]
  CC50: > 100 µM
NCI-H322M [17]
  growth at 0.1 µM: 95%
NCI-H322M [18]
  growth at 100 µM: 8%
RPMI-8226 [19]
  growth at 100 µM: 2%
HOP-62
  growth at 0.1 µM: 102%
NCI-H23
  growth at 10 µM: 83%
[20]
  inhibition: 81%
HCT-116
  growth at 0.1 µM: 109%
PC-3
  growth at 0.1 µM: 96%
SNB-19
  growth at 0.1 µM: 94%
SK-MEL-28 [21]
  growth at 10 µM: 87%
HCT-15 [22]
  growth at 0.1 µM: 95%
HCT-15 [23]
  growth at 10 µM: 80%
A498
  growth at 1000 µM: 43%
UO-31 [24]
  growth at 0.1 µM: 85%
NCI-H522
  growth at 10 µM: 99%
BT-549 [25]
  growth at 1000 µM: 30%
MDA-MB-231
  growth at 1000 µM: 2%
